The test system of one series is Ugt1a1. Description: Western blot protein level after 7 days gavage: UGT1A1. Type of series: in vivo. Particulars: mice, p.o. 7 days; liver. The protocol:
Mice were randomly divided into four groups, with eight animals in each group. The mice received oral pretreatment with N-hydap for 7 days at doses of 2, 5, and 10 mg/kg/day, which were considered as the low dose, medium dose, and high dose, respectively. Correspondingly, the control group received PBS. On the 8th day, the liver and kidneys were removed, and organs from eight mice per group were combined to prepare MLMs and MKMs using the detailed procedures above. Subsequently, we determined the activity of CYP and UGT enzymes by specific substrate metabolized with MLMs (0.5 mg/mL) and MKMs (0.2 mg/mL) in vitro. […] In the ex vivo experiments, the activity of enzymes was measured by quantifying the production of various metabolites (nM/mg protein/min). […] The measurements were performed using multiple reaction monitoring (MRM) transitions, which are specific mass spectrometry transitions used for quantification. […]
After 7 days of N-hydap gavage, the liver and kidney tissues were lysed using RIPA buffer supplemented with a 1% protease inhibitor cocktail. […] Western blot signals were detected using an ECL chemiluminescence detection agent. The relative intensity of each protein band was scanned and quantified using Image J software.
Background: Immunoblotting shows a protein as a band on a membrane.

The next series concerns RLMs. Description: Kinetics of N-hydap glucuronidation in RLMs. The format is in vitro ADME, rat. Particulars: RLM. The protocol:
(§1) In this study, the rats were executed by drawing blood from the abdominal aorta and mice were sacrificed with cervical dislocation before the liver and kidneys were excised. The liver and kidneys were removed, and washed with chilled cleansing solution (contains 8 mM KH2PO4, 5.6 mM EDTA·K2·2H2O, 1 mM DTT and 229.6 μM PMSF), homogenized in a tissue homogenate buffer with a pH of 7.4, (consisting of […], 8 mM K2HPO4, 250 mM sucrose, 1 mM EDTA·K2·2H2O and 229.6 μM PMSF). Subsequently, the homogenate was centrifuged at 10,400 rpm at 4 °C for 15 min, and the supernatant was then centrifuged at 35,000 rpm at 4 °C for 60 min. A 250 mM sucrose buffer was added to the pellet to reconstitute and the resuspension was stored at − 80 °C until use. Microsome protein concentrations were measured by Omni-Easy™ Instant BCA Protein Assay Kit.
(§2) Various microsomes including HLMs, HKMs, HIMs, RLMs, RKMs, MLMs and MKMs were involved in CYP and UGT reactions of N-hydap. […]
(§3) The substrate concentrations used for HLMs were 0.05, 0.5, 2, 2.5, 5, 10, 25, 50, and 100 μM. […] The rates of N-hydap-G by enzymes were expressed as nmol/mg/min, representing the amount of metabolites formed per minute per milligram of protein. Kinetic parameters were determined by analyzing the Eadie–Hofstee plots. […]

Another series deals with RKMs. Description: Kinetics of N-hydap glucuronidation in RKMs. Type of series: in vitro ADME, rat. Particulars: RKM. On the procedure: as §1, §2, §3

Molecules are shown by their SMILES.

One may read the Km as the concentration of substrate that gives half-maximal velocity.

`CC1CCC2C(C=CC(C)C2C(=O)c2c(O)c(C3(O)CCC(O)C4OC43)cn(O)c2=O)C1` (stereo not drawn) [N-hydap, N-Hydroxyapiosporamide]: the “protein levels of UGT1A1” value in the series on Ugt1a1 was “slightly down-regulated”. In addition, the Km in the series with RLMs was found to be 0.357 µM; in the series with RKMs, 125 µM.

The values above are taken from publication PMC11109052, “Metabolism characterization and toxicity of N-hydap, a marine candidate drug for lung cancer therapy by LC–MS method” (Natural Products and Bioprospecting, 2024).
